This note sets out measurements from ChEMBL document CHEMBL1201862, “PubChem BioAssay data set” (2004).

Activity calls are given as the source filed them. Where only a bound is given, the exact number is not on record here.

In assay [1] the target is E3 ubiquitin-protein ligase Mdm2 (Homo sapiens, UniProt Q00987). Briefly: enhancers of MDM2-luciferase reporter signal, concentration-effect titration, project on inhibitors of MDM2 ubiquitin ligase, cellular assay, luminescent readout, 384-well plate format (AID 1394).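 Further: MDM2 E3 inhibitors raise luminescence so EC50 is for signal enhancement.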 The class given is functional.
Sequence of E3 ubiquitin-protein ligase Mdm2 (Q00987 whole entry): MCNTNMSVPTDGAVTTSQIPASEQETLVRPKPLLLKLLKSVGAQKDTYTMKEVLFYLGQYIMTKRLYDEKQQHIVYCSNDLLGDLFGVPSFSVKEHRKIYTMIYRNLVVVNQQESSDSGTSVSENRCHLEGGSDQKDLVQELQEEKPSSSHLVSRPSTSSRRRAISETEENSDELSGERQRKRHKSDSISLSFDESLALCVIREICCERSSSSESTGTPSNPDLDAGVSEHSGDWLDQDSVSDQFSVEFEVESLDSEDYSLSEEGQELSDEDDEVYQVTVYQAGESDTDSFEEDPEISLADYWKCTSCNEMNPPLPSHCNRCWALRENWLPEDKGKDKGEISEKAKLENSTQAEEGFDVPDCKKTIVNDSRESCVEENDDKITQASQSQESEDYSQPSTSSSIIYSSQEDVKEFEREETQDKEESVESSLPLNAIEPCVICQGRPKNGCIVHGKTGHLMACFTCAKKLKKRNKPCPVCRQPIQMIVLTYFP
The target in another assay is T1, Estrogen receptor (Homo sapiens, UniProt P03372).
T1 sequence (P03372 whole entry): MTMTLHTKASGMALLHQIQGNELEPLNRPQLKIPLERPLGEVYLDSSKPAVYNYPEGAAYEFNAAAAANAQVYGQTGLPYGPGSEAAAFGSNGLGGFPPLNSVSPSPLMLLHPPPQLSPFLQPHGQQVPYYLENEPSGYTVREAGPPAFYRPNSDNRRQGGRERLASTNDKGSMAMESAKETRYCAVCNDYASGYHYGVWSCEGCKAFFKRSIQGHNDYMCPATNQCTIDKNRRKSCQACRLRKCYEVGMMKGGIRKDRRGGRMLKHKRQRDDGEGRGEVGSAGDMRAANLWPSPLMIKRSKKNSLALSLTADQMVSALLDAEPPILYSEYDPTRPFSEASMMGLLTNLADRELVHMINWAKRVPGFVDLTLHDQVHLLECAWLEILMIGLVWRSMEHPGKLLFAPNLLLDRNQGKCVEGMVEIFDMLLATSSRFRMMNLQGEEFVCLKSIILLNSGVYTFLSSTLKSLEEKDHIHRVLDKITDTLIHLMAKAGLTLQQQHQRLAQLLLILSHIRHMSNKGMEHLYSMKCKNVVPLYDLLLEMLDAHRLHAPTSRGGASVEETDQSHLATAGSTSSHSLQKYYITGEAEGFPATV

The next assay addresses Estrogen receptor beta (Homo sapiens, UniProt Q92731).
The subject of the next assay is H9c2. Briefly: cells. In kind it is functional, cell-based. Particulars: Rattus norvegicus, H9c2, Myocardium.
Assay [2] concerns the target 26S proteasome non-ATPase regulatory subunit 14 (Homo sapiens, UniProt O00487). Briefly: inhibition of proteasome subunit RPN11 – biochemical, fluorescence polarization, uHTS hits, confirmation (AID 602368). In kind it is functional.
For assay [3], the target named is 72 kDa type IV collagenase (Homo sapiens, UniProt P08253). The experiment in a line: Dose Response validation of uHTS RPN11 inhibitor hits using a MMP-2 Fluorescence assay. In kind it is functional.
Sequence of 72 kDa type IV collagenase (P08253 whole entry): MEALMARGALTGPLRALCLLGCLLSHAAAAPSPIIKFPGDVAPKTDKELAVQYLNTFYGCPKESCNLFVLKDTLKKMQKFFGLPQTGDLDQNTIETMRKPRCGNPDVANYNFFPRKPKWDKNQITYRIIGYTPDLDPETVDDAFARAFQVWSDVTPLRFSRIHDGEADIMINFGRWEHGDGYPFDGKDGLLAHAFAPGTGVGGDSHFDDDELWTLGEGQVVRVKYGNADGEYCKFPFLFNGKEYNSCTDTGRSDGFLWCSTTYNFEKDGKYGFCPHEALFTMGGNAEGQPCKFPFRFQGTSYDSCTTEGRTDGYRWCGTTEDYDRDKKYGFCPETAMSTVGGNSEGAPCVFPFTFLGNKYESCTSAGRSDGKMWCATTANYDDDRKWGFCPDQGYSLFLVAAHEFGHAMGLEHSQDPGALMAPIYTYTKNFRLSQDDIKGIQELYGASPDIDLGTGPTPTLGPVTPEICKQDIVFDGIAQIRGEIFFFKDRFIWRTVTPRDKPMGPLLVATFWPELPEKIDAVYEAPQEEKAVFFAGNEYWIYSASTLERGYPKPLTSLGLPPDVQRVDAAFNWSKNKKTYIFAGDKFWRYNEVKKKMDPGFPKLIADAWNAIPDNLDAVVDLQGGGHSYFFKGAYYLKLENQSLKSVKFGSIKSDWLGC
A further assay has as its target Prothrombin (Bos taurus, UniProt P00735). Briefly: thrombin inhibition, dose response, biochemical, fluorescence polarization, uHTS hits (AID 602369). The class given is functional.
In assay [4] the target is T2, Heat shock factor protein 1 (Mus musculus, UniProt P38532).
T2 sequence (P38532 whole entry): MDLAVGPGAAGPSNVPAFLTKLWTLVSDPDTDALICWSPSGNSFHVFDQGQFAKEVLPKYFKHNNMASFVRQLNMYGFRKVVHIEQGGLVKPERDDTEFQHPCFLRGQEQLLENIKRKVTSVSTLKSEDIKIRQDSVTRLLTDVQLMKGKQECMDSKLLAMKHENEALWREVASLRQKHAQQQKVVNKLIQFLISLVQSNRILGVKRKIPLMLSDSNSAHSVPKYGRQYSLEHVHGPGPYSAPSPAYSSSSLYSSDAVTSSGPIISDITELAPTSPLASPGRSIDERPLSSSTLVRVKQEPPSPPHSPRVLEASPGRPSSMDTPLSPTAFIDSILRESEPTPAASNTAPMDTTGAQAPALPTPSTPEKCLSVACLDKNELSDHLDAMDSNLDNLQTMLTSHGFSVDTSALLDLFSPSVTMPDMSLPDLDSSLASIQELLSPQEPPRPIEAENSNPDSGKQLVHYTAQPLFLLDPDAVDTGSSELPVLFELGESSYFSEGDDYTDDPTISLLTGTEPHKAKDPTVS
The experiment in a line: inhibition of MG132-induced HSE-luciferase signal, confirmation, cell-based, NIH3T3, luminescence, dose retest (AID 2382).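 Further: NIH3T3 fibroblasts with HSF1-driven luciferase reporter stressed by proteasome inhibitor MG132; luminescence from HSF1-driven luciferase expression after 8 hours of MG132 stress.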 In kind it is functional.

A short description of assay [5]: THP-1 cell cytotoxicity, dose response, cytotoxicity control for non-replicating M. tuberculosis project (AID 489025). In kind it is functional.
Assay [6] is described as follows: Vero E6 cell cytotoxicity, dose response, cytotoxicity control for non-replicating M. tuberculosis project, secondary assay (AID 492998). The class given is functional, VeroE6. Particulars: Vero C1008.
In a further assay the target is T3, Protein skinhead-1 (Caenorhabditis elegans, UniProt P34707).
T3 sequence (P34707 whole entry): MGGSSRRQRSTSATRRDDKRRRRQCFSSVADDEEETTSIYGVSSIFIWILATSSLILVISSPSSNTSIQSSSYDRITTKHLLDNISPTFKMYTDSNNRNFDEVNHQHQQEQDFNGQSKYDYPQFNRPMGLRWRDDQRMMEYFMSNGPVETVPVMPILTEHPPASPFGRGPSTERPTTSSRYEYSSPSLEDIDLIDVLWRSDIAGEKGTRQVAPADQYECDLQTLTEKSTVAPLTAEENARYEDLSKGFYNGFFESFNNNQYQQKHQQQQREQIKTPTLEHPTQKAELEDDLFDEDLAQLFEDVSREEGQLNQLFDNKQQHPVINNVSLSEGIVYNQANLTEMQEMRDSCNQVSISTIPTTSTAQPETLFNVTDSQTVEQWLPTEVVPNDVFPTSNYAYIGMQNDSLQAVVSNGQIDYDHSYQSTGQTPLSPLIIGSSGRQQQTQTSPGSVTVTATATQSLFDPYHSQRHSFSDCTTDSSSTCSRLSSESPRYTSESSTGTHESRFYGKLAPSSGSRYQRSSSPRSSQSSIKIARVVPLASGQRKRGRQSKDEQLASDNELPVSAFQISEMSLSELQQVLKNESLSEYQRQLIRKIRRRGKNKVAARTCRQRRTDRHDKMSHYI
The class given is functional.

Assay [7] in a line: Vero cell cytotoxicity, dose response, cytotoxicity control for Vif-APOBEC3G degradation inhibitor project, Vero cells (AID 1117358). In kind it is functional. The conditions noted are these: Human immunodeficiency virus 1, Vero.
The nature of assay [8]: inhibitors of HIV Env-driven cell fusion, dose response, cherry-pick (AID 652057). In kind it is functional, cell-based.
The nature of assay [9]: CEM21 lymphoblast cell cytotoxicity, dose response, cytotoxicity control for viral fusion inhibitor project, CellTiter-Glo luminescence, cherry-picked (AID 652042).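 Further: potency for signal decrease meaning cytotoxicity.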 The class given is functional, cell-based.
Assay [10] can be described thus: ZM109 Env clade C HIV-1 fusion inhibitors, dose response, HeLa effector, CEM target cells, luciferase, cherry-pick (AID 652058). The class given is functional, cell-based.
A short description of assay [11]: off-target signal loss in HeLa-CEM21 co-culture – HeLa F-luc CTL cells, cherry-picked, counter-screen for HIV-1 Env fusion inhibitor project, dose response (AID 652040).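 Further: potency for signal decrease marking cytotoxic or nonspecific inhibition.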 In kind it is functional, cell-based.
Assay [12] in a line: inhibitors of clade B AD8 Env fusion, dose response, cell-based, cherry-pick (AID 652062).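 Further: luciferase signal from cell-cell fusion driven by HIV-1 clade B AD8 Env; potency is for inhibitors of fusion seen as a drop in luminescence.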 The class given is functional.
The nature of assay [13]: P. falciparum 3D7-ScDHODH growth inhibitors, dose response, SYBR Green, dry powder samples (AID 1159570).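 Further: parasite growth measured after 72 hours of compound exposure.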 In kind it is functional, cell-based.
Assay [14] in a line: HepG2 cell cytotoxicity, dose response, cytotoxicity control, plate reader, dry powder samples (AID 1159569).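 Further: inhibitor potency with signal falling toward the positive control level.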 The class given is functional, cell-based.
Assay [15] is described as follows: P. falciparum Dd2 growth inhibitors, dose response, SYBR Green, cherry-picked samples (AID 1159567). In kind it is functional, cell-based.
Assay [16] is described as follows: P. falciparum Dd2 growth inhibitors, dose response, SYBR Green, dry powder samples (AID 1159566).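 Further: potency for growth inhibition with lower SYBR green DNA signal.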 The class given is functional, cell-based.
Assay [17] in a line: P. falciparum ATP4 D1247Y mutant growth inhibitors, dose response, NITD609-resistant line, SYBR Green, dry powder (AID 1159571).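 Further: parasites synchronized at ring stage by sorbitol before testing.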 The class given is functional, cell-based.
Assay [18] deals with HEK293. The experiment in a line: cells. Particulars: Homo sapiens.
The subject of assay [19] is HEK293. Briefly: cells. The conditions noted are these: Homo sapiens. This is another data set of the same source.
The target in a further assay is T4, Leucine aminopeptidase (Plasmodium falciparum 3D7, UniProt Q8IL11).
T4 sequence (Q8IL11 whole entry): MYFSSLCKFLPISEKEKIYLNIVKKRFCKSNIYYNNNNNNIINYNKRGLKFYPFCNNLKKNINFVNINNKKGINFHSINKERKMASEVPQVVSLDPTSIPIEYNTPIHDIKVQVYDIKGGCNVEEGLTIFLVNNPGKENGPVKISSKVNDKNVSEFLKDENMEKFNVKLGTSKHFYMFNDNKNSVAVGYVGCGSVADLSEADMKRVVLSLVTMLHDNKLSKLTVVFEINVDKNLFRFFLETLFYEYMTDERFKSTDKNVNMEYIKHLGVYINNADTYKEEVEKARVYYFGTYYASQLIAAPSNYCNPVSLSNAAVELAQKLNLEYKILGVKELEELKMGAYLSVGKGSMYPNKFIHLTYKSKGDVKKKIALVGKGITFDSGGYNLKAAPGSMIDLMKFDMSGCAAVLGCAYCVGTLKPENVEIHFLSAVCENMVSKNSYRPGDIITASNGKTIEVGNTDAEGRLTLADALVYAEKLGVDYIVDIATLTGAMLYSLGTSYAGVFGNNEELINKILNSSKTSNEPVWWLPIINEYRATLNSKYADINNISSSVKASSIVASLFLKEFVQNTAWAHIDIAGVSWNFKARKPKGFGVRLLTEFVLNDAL
Briefly: P. falciparum M17LAP inhibitors, primary screen, biochemical, fluorogenic H-Leu-NHMec substrate, 1536-well (AID 1619). The class given is functional.

The target in assay [20] is Bifunctional protein GlmU (Mycobacterium tuberculosis, UniProt P9WMN3). The experiment in a line: Inhibitors of Mycobacterial Glucosamine-1-phosphate acetyl transferase (GlmU). Secondary screen. Also on record: species or system Mycobacterium tuberculosis H37Rv.
Sequence of Bifunctional protein GlmU (P9WMN3 whole entry): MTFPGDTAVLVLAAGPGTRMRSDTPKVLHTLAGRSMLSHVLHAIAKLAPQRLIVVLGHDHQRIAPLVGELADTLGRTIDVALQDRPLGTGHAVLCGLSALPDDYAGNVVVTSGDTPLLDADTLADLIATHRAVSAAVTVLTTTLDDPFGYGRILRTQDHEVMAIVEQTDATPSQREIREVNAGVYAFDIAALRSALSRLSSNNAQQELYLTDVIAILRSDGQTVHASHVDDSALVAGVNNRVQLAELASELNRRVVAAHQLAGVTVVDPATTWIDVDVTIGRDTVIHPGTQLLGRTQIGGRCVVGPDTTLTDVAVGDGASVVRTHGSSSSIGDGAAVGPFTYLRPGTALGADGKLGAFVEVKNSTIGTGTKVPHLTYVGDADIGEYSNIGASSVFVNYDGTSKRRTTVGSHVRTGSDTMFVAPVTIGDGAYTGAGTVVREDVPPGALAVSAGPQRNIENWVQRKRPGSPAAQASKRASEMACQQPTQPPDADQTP
Assay [21] in a line: HepG2 cell cytotoxicity, dose response, cytotoxicity control, cherry-picked samples (AID 1159577). The class given is functional, cell-based.
For the next assay, the target named is Genome polyprotein (dengue virus type 2, UniProt P29990). Briefly: Dengue-2 NS5 methyltransferase inhibitors, primary screen, biochemical, confirmation dose response (AID 588689). In kind it is functional.
Sequence of Genome polyprotein (P29990 2492-3391 limits assumed): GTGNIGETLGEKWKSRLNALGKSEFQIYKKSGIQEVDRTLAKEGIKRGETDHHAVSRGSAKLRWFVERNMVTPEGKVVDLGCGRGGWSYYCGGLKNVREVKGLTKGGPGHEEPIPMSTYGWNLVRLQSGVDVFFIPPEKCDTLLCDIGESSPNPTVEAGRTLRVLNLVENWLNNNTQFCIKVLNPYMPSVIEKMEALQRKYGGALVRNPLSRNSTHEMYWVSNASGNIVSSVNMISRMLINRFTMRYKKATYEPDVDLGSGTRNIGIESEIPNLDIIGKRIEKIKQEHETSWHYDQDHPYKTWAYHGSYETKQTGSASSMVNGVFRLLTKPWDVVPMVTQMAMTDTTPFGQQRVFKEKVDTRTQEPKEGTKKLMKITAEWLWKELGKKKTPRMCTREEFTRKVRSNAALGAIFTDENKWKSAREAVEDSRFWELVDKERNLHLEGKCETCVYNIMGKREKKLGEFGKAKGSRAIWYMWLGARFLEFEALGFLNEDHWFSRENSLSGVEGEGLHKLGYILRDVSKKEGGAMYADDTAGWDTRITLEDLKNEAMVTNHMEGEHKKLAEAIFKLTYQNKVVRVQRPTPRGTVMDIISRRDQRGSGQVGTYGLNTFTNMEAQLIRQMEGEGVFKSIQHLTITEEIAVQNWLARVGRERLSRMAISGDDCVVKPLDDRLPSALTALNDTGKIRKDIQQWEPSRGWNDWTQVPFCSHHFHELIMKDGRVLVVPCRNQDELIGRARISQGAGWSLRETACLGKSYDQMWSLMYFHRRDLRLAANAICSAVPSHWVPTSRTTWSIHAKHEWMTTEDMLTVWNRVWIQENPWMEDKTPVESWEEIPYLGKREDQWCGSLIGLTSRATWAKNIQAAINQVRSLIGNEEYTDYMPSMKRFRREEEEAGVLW
Assay [22] has as its target Glutathione-S-transferase (Schistosoma japonicum, UniProt Q26513). The experiment in a line: biotin-GST/anti-GST TR-FRET signal inhibitors, dose response, artefact control for Vif-APOBEC3G degradation inhibitor project, biochemical (AID 1117362). In kind it is functional.
In assay [23] the target is G-protein coupled receptor 35 (Homo sapiens, UniProt Q9HC97). Briefly: GPR35 antagonists blocking zaprinast-driven arrestin recruitment, primary screen, imaging, U2OS, beta-arrestin-GFP, zaprinast agonist (AID 2058).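 Further: antagonist potency meaning inhibition of agonist-induced arrestin redistribution.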 In kind it is functional.
Sequence of G-protein coupled receptor 35 (Q9HC97 whole entry): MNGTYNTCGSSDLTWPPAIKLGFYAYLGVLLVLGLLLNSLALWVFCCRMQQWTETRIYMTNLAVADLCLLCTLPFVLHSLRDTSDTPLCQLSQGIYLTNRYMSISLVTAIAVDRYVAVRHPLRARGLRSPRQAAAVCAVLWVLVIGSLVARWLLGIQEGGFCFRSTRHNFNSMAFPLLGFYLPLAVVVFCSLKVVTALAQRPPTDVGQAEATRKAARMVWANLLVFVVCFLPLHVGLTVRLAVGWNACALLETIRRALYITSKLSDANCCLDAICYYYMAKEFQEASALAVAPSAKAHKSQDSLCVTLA
Assay [24] has as its target G-protein coupled receptor 55 (Homo sapiens, UniProt Q9Y2T6). The experiment in a line: GPR55 antagonists blocking LPI-driven arrestin recruitment, primary screen, imaging, U2OS, beta-arrestin-GFP, LPI agonist (AID 2013).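 Further: antagonist potency measured as reduced agonist-driven arrestin aggregation.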 The class given is functional.

Sequence of 26S proteasome non-ATPase regulatory subunit 14 (O00487 whole entry): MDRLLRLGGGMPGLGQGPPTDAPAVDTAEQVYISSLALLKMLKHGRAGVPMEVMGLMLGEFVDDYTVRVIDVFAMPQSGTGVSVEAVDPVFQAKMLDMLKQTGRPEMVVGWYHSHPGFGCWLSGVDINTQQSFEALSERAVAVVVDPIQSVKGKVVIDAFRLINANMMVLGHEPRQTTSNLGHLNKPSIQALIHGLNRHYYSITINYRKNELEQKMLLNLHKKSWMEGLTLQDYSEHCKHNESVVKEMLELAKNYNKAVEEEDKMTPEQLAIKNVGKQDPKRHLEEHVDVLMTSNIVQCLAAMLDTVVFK
Sequence of Glutathione-S-transferase (Q26513 whole entry): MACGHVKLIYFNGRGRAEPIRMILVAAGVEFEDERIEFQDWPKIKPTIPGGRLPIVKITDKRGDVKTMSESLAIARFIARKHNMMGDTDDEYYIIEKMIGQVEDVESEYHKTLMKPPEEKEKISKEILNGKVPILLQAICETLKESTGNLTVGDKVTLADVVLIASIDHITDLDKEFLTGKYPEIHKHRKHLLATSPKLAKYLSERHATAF
Sequence of Estrogen receptor beta (Q92731 whole entry): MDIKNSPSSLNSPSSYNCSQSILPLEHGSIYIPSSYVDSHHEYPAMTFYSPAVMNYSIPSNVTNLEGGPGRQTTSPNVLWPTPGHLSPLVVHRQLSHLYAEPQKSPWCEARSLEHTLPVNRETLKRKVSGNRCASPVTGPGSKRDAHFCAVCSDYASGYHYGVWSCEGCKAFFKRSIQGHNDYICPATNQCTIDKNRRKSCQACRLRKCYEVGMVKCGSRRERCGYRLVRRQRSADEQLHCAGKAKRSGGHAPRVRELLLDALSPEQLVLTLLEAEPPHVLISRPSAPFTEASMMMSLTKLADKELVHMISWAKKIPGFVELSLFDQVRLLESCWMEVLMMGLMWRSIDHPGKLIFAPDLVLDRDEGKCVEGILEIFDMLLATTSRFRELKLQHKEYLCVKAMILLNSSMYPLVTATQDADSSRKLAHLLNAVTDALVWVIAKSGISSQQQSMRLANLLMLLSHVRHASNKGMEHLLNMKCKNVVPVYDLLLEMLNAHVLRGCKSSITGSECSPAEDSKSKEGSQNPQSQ
Sequence of G-protein coupled receptor 55 (Q9Y2T6 whole entry): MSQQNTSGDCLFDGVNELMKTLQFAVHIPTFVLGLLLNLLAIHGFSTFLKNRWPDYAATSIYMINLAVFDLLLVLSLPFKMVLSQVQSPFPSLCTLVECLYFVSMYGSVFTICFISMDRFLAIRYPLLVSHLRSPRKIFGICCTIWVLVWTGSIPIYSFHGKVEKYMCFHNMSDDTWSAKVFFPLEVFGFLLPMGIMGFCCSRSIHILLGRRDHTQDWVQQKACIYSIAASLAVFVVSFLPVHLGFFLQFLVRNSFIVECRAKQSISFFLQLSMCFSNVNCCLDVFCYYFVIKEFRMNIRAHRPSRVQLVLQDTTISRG

As for `COc1ccc(Nc2nc(C(=O)N3CCc4ccccc4C3)cs2)cc1`, in [1], the EC50 is recorded as 12.3 µM (not active).
`Cc1ccc(S(=O)(=O)Cc2ccc(C(=O)N3CCC4(CC3)OCCO4)o2)cc1`: the values for the 50% inhibitory concentration (IC50) at Estrogen receptor and on Estrogen receptor beta were 43 µM (not active) and 12.8 µM (active), respectively.
On to `COc1cccc(/C=N/NC(=O)c2[nH]c(C)c(C(=O)N/N=C/c3cccc(OC)c3)c2C)c1`, for which the EC50 in assay [1] is 6.15 µM (not active). The IC50 in the assay with H9c2 is 10.6 µM (active); in assay [2] it was 1.41 µM (active); in assay [3], > 100 µM (inactive); at Prothrombin, > 100 µM (inactive).
On to `CCN1C(C(=O)c2ccccc2)=C(O)c2ccccc2S1(=O)=O`, for which the EC50 in assay [4] was > 195 µM (not active). The figures for the CC50 in assay [5], in assay [6] and in assay [7] were 26.2 µM (active), 19.2 µM (active) and 24.3 µM (active), respectively. Moreover, the IC50 on Protein skinhead-1 is > 100 µM (inactive).
For the molecule `Cc1ccc(S(=O)(=O)N(C)C[C@@H]2OCc3ccccc3-c3c(n(C)c4ccccc34)C(=O)N([C@H](C)CO)C[C@@H]2C)cc1`, the AC50 in assay [8] was 1.87 µM (active); in [9] it was 29.6 µM (active); in assay [10] it was 2 µM (active); in assay [11], 1.66 µM (active); in [12], 2.16 µM (active); in assay [13], 0.151 µM (active). The AC50 in assay [14] is 52.3 µM (active); in assay [15], 0.676 µM (active); in assay [16], 0.0655 µM (active); in assay [17] it was 0.106 µM (active). Moreover, the EC50 in the assay with HEK293 [18] and with HEK293 [19] was > 59.6 µM (inactive) throughout.
Turning to `O=C(O)c1cccc(-c2ccc(/C=N/NC(=O)c3cccnc3)o2)c1`, the results for the IC50 (on Leucine aminopeptidase; in assay [20]) were 37.5 µM (active) and 185 µM (active), respectively.
Consider `C[C@H]1CN([C@@H](C)CO)C(=O)c2ccccc2-c2ccccc2CO[C@H]1CN(C)Cc1ccc(C(F)(F)F)cc1`, for which the AC50 in assay [15] is 3.03 µM (active); in [21] it was > 42 µM (inactive).
Turning to `O=C1CC=C2C3CC4N(CCC45c4cc(O)c(O)cc4N1C25)CC3=CCBr` (stereo unspecified), the concentration for half-maximal inhibition (IC50) at Genome polyprotein is 31.5 µM (active); in assay [22], 3.05 µM (active).
Take `O=C1C=CC(=O)N1CCCCCCN1C(=O)C=CC1=O`: the IC50 in [23] is 6.23 µM (active); in assay [24] it was 9.79 µM (active); in assay [20], 118 µM (active).
As to `CCC(=O)N1CC(=O)N2[C@@H](CO)[C@H](c3ccc(C#CCc4ccccc4)cc3)[C@@H]2C1`, the AC50 in assay [15] was 11.4 µM (active); in assay [21], 25.2 µM (active).
